Measured values taken from PMC6202246 (Nature chemical biology, 2018).

Test system: BRD2BD1, BRD2BD2, BRD3BD1, BRD3BD2, BRD4BD1, BRD4BD2 EGFP reporters
Experiment: EGFP/mCherry reporter assay across individual BET bromodomains
Type: cell-based, human
Conditions: BRD2/3/4 BD1 and BD2 reporter cells, 5 h

Q: For Cc1sc2c(c1C)C(c1ccc(Cl)cc1)=N[C@@H](CC(=O)NCCCCCCCCNC(=O)COc1cccc3c1C(=O)N(C1CCC(=O)NC1=O)C3=O)c1nnc(C)n1-2 (stereo partly shown) [dBET6], which “activity profile across BET bromodomain reporters” value is on record?
A: The value was “activity on most bromodomains”.
